# Data: patent EP4722207A1, “OXOISOINDOLINYL-SUBSTITUTED TETRAHYDROPYRIMIDINEDIONE DERIVATIVE AND USE THEREOF” (Gluetacs Therapeutics (Shanghai) Co., Ltd., priority 2023, dated 2024)
# Tests used:
# [1] = target: T1, WEE1 (Homo sapiens, UniProt P30291+Q96SW2); assay: Western-blot assay, substrate protein degradation in hPBMCs: WEE1; format: cell-based; details: for substrate protein remaining % WEE1: 24 hours of compound treatment, 50 nM and 500 nM
# T1 construct: effects of the compounds of the present disclosure on the expression of target proteins in cells; endogenous in cells; host or cells: human PBMCs (hPBMCs)
# T1 sequence (P30291 whole entry): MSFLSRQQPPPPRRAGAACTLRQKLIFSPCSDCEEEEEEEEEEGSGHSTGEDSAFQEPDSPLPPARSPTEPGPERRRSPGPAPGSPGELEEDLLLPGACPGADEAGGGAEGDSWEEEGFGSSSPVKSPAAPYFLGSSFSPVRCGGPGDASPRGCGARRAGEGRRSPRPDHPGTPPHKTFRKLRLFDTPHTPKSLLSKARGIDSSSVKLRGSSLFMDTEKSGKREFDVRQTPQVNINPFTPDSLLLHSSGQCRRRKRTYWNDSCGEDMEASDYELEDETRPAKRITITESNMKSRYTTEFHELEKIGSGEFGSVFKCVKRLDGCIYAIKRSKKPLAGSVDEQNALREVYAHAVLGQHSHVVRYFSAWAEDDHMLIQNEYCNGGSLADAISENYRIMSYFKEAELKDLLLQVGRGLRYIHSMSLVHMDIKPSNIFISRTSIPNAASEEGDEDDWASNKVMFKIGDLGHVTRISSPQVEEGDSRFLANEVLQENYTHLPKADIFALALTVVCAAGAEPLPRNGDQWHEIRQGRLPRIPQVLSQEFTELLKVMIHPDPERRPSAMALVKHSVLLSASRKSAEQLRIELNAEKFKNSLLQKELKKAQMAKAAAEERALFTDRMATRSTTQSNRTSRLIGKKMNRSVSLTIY
# T1 sequence (Q96SW2 whole entry): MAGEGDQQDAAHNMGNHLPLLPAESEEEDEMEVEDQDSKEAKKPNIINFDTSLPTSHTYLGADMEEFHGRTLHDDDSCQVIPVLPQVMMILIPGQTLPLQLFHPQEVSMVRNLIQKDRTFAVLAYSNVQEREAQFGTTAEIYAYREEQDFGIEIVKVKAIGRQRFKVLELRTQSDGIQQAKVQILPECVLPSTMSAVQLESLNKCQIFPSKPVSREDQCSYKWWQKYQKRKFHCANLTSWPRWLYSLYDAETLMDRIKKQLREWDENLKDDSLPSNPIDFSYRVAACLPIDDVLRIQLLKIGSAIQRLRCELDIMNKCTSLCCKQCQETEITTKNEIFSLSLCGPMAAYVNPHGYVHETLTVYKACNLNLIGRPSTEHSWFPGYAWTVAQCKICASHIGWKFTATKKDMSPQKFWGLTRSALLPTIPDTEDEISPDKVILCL
# T1 sequence (Q16531 whole entry partner): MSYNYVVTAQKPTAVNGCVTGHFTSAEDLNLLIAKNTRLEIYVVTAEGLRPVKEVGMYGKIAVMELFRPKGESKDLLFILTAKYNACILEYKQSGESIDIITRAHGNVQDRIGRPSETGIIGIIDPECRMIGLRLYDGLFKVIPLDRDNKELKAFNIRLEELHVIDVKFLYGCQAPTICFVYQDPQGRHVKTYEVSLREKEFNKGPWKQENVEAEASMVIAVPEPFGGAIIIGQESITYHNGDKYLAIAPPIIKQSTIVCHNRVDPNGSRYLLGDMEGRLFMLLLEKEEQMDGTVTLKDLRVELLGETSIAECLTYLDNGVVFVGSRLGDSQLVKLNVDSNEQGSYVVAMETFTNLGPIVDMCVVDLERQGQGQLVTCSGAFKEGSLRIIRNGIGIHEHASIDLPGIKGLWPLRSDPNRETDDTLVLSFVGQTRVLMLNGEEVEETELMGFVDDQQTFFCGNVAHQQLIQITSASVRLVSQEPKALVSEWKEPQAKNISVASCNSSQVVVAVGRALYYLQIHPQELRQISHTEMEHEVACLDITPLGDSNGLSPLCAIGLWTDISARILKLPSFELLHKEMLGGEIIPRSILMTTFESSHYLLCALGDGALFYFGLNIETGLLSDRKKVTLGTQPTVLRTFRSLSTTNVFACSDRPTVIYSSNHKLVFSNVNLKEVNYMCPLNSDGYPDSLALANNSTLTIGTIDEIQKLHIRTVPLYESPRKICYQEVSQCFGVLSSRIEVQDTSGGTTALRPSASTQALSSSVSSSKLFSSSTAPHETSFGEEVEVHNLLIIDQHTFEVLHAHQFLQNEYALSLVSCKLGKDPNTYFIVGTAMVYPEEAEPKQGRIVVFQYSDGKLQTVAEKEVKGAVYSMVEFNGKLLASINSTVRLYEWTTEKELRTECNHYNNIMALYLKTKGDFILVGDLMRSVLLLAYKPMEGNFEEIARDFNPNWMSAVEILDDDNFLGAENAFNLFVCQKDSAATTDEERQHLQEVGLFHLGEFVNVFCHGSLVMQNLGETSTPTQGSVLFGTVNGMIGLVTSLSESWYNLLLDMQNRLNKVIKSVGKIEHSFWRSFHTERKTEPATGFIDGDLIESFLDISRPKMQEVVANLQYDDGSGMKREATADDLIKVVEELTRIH
# [2] = target: T2, IKZF1 (Homo sapiens, UniProt Q13422+Q96SW2); assay: Western-blot assay, substrate protein degradation in hPBMCs: IKZF1; format: cell-based; details: for substrate protein remaining % IKZF1: 24 hours of compound treatment, 50 nM and 500 nM
# T2 construct: effects of the compounds of the present disclosure on the expression of target proteins in cells; endogenous in cells; host or cells: human PBMCs (hPBMCs)
# T2 sequence (Q13422 whole entry): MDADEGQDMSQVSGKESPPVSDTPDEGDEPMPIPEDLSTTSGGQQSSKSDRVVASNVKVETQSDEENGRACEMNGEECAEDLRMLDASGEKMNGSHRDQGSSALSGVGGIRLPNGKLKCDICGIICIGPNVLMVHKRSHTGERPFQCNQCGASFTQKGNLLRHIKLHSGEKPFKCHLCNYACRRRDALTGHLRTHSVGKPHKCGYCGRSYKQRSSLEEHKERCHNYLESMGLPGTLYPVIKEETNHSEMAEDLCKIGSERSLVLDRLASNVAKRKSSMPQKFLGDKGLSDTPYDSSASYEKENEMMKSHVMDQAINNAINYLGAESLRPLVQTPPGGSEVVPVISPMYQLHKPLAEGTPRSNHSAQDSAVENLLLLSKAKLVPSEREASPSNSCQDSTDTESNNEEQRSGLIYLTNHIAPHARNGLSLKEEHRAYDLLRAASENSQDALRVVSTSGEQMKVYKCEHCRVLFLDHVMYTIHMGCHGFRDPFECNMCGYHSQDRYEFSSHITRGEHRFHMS
# T2 sequence (Q96SW2 whole entry): as the sequence (Q96SW2 whole entry) above
# T2 sequence (Q16531 whole entry partner): as the sequence (Q16531 whole entry partner) above
# [3] = target: T3, IKZF2 (Homo sapiens, UniProt Q96SW2+Q9UKS7); assay: Western-blot assay, substrate protein degradation in hPBMCs: IKZF2; format: cell-based; details: for substrate protein remaining % IKZF2: 24 hours of compound treatment, 50 nM and 500 nM
# T3 construct: effects of the compounds of the present disclosure on the expression of target proteins in cells; endogenous in cells; host or cells: human PBMCs (hPBMCs)
# T3 sequence (Q9UKS7 whole entry): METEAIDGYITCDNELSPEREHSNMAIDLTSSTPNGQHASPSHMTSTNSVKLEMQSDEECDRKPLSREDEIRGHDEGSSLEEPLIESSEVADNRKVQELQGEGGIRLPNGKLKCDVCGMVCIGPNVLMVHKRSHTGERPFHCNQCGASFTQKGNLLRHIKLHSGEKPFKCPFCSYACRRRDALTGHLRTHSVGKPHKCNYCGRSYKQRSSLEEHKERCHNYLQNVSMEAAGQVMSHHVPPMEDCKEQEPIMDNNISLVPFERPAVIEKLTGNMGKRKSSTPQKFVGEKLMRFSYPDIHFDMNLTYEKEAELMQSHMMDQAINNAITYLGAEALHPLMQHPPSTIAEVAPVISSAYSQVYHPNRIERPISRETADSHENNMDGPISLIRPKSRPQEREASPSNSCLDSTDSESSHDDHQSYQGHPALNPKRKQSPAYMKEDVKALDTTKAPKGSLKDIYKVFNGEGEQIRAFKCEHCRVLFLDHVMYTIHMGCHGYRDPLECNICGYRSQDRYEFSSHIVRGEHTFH
# T3 sequence (Q96SW2 whole entry): as the sequence (Q96SW2 whole entry) above
# T3 sequence (Q16531 whole entry partner): as the sequence (Q16531 whole entry partner) above
# [4] = target: T4, IKZF3 (Homo sapiens, UniProt Q96SW2+Q9UKT9); assay: Western-blot assay, substrate protein degradation in hPBMCs: IKZF3; format: cell-based; details: for substrate protein remaining % IKZF3: 24 hours of compound treatment, 50 nM and 500 nM
# T4 construct: effects of the compounds of the present disclosure on the expression of target proteins in cells; endogenous in cells; host or cells: human PBMCs (hPBMCs)
# [5] = target: T5, CK1α (Homo sapiens, UniProt P48729+Q96SW2); assay: Western-blot assay, substrate protein degradation in hPBMCs: CK1α; format: cell-based; details: for substrate protein remaining % CK1α: 24 hours of compound treatment, 50 nM and 500 nM
# T5 construct: effects of the compounds of the present disclosure on the expression of target proteins in cells; endogenous in cells; host or cells: human PBMCs (hPBMCs)
# T5 sequence (P48729 whole entry): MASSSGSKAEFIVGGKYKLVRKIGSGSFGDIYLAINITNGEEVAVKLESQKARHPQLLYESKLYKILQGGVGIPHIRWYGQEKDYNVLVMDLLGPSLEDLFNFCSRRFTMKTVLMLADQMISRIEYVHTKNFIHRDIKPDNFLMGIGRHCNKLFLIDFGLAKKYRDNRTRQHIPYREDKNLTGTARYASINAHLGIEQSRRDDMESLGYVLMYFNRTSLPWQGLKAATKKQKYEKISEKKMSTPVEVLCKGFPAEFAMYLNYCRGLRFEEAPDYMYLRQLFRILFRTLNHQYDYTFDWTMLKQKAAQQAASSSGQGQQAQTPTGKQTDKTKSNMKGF
# T5 sequence (Q96SW2 whole entry): as the sequence (Q96SW2 whole entry) above
# T5 sequence (Q16531 whole entry partner): as the sequence (Q16531 whole entry partner) above
# [6] = target: T6, GSPT1 (Homo sapiens, UniProt P15170+Q96SW2); assay: Western-blot assay, substrate protein degradation in hPBMCs: GSPT1; format: cell-based; details: for substrate protein remaining % GSPT1: 24 hours of compound treatment, 50 nM and 500 nM
# T6 construct: effects of the compounds of the present disclosure on the expression of target proteins in cells; endogenous in cells; host or cells: human PBMCs (hPBMCs)
# T6 sequence (P15170 whole entry): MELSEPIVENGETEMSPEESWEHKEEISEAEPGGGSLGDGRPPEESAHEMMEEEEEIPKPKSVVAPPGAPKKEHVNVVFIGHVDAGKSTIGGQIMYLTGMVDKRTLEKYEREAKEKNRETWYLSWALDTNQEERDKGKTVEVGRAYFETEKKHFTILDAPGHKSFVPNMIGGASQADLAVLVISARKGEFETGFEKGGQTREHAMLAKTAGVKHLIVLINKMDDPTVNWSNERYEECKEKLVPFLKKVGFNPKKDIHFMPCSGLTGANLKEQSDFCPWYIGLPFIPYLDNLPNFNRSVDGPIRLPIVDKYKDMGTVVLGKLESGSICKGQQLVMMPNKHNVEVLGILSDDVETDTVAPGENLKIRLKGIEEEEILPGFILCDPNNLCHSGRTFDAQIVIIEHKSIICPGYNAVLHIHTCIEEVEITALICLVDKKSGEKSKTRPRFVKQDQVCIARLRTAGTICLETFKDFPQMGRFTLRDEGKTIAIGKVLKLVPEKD
# T6 sequence (Q96SW2 whole entry): as the sequence (Q96SW2 whole entry) above
# T6 sequence (Q16531 whole entry partner): as the sequence (Q16531 whole entry partner) above
# [7] = test system: MM.1S; assay: Cell viability assay (CellTiter-Meiluncell Luminescent), tumor cell proliferation, MM.1S; details: Homo sapiens, MM1.S, 96 h; for inhibition at 0.01 µM: read-out: Inhibition Rate at 10 nM (%); for inhibition at 0.5 µM: read-out: Inhibition Rate at 500 nM (%); for IC50: read-out: inhibitory activity (IC50, nM) against tumor cells proliferation, MM.1S
# [8] = test system: MV-4-11; assay: Cell viability assay (CellTiter-Meiluncell Luminescent), tumor cell proliferation, MV-4-11; details: Homo sapiens, MV4-11, 96 h; for inhibition at 0.01 µM: read-out: Inhibition Rate at 10 nM (%); for inhibition at 0.5 µM: read-out: Inhibition Rate at 500 nM (%)
# Experimental: The tumor cells used herein were cultured in a cell culture medium listed in table 2 at 37°C in an incubator with 5% CO2. Prior to experimentation, all cell lines used were correctly identified by STR profiling, and tested negative for mycoplasma contamination using a mycoplasma detection kit through routine screenings.
# On the following day, the test compounds of the present disclosure were subjected to serial dilution. […] Subsequently, 0.5 µL of the test compound dilution was transferred into the 96-well plate containing the cells, with each well containing 100 µL of cell culture medium. […] Into the 96-well plate, the diluted test compounds and corresponding detection reagents were added, resulting in final test compound concentrations of 500 nM and 10 nM, respectively. The experimental procedure is described below using the diluted 2 µM test compound as an example.
# After the cells were treated with the compounds of the present disclosure for a specified period, the cell viability assay reagent was added to the culture medium according to the kit's instructions to determine cell viability. […] All controls were treated using the same procedure as the compounds of the present disclosure. The growth inhibition curves for the compounds of the present disclosure were plotted using Prism GraphPad software, and the IC50 values were calculated therefrom.
# [9] = test system: H292; assay: Cell viability assay (CellTiter-Meiluncell Luminescent), tumor cell proliferation, H292; details: Homo sapiens, NCI-H292, 96 h; for inhibition at 0.01 µM: read-out: Inhibition Rate at 10 nM (%); for inhibition at 0.5 µM: read-out: Inhibition Rate at 500 nM (%)
# [10] = test system: MDA-MB-231; assay: Cell viability assay (CellTiter-Meiluncell Luminescent), tumor cell proliferation, MDA-MB-231; details: Homo sapiens, MDA-MB-231, 96 h
# [11] = compounds at 50 nM and 500 nM, 24 hours
Compound,substrate protein remaining % WEE1 [1],substrate protein remaining % IKZF1 [2],substrate protein remaining % IKZF2 [3],substrate protein remaining % IKZF3 [4],substrate protein remaining % CK1α [5],substrate protein remaining % GSPT1 [6],inhibition at 0.01 µM [7] [%],inhibition at 0.5 µM [7] [%],inhibition at 0.01 µM [8] [%],inhibition at 0.5 µM [8] [%],inhibition at 0.01 µM [9] [%],inhibition at 0.5 µM [9] [%],further results
"Cc1nc(N2CCN(Cc3ccc4c(c3)C(=O)N(N3CCC(=O)NC3=O)C4=O)CC2)c2c3c(sc2n1)CCC3 [GT-08104, 2-(2,4-dioxotetrahydropyrimidin-1(2H)-yl)-5-((4-(2-methyl-6,7-dihydro-5H-cyclopenta[4,5]thieno[2,3-d]pyrimidin-4-yl)piperazin-1-yl)methyl)isoindoline-1,3-dione]",A (0% ≤ substrate protein remaining % ≤ 80%),B (80%< substrate protein remaining %≤ 100%),A (0% ≤ substrate protein remaining % ≤ 80%),A (0% ≤ substrate protein remaining % ≤ 80%),B (80%< substrate protein remaining %≤ 100%),A (0% ≤ substrate protein remaining % ≤ 80%),20 to 30,30 to 42,40 to 60,40 to 60,–,–,–
"O=C1CCN(N2Cc3cc(CN4CC=C(c5ncc6ccsc6n5)CC4)ccc3C2=O)C(=O)N1 [GT-08438, 1-(1-oxo-5-((4-(thieno[2,3-d]pyrimidin-2-yl)-3,6-dihydropyridin-1(2H)-yl)methyl)isoindolin-2-yl)dihydropyrimidine-2,4(1H,3H)-dione]",A (0% ≤ substrate protein remaining % ≤ 80%),A (0% ≤ substrate protein remaining % ≤ 80%),B (80%< substrate protein remaining %≤ 100%),A (0% ≤ substrate protein remaining % ≤ 80%),B (80%< substrate protein remaining %≤ 100%),A (0% ≤ substrate protein remaining % ≤ 80%),20 to 30,80 to 100,–,–,20 to 40,10 to 15,–
"Cc1nc(C2=CCN(Cc3ccc4c(c3)C(=O)N(N3CCC(=O)NC3=O)C4=O)CC2)c2c(-c3ccccc3)csc2n1 [GT-08484, 2-(2,4-dioxotetrahydropyrimidin-1(2H)-yl)-5-((4-(2-methyl-5-phenylthieno[2,3-d]pyrimidin-4-yl)-3,6-dihydropyridin-1(2H)-yl)methyl)isoindoline-1,3-dione]",A (0% ≤ substrate protein remaining % ≤ 80%),A (0% ≤ substrate protein remaining % ≤ 80%),A (0% ≤ substrate protein remaining % ≤ 80%),A (0% ≤ substrate protein remaining % ≤ 80%),A (0% ≤ substrate protein remaining % ≤ 80%),A (0% ≤ substrate protein remaining % ≤ 80%),42 to 60,20 to 30,–,–,20 to 40,15 to 20,–
"O=C1CCN(N2C(=O)c3ccc(CN4CC=C(c5ncnc6sc7c(c56)CCCC7)CC4)cc3C2=O)C(=O)N1 [GT-08433, 2-(2,4-dioxotetrahydropyrimidin-1(2H)-yl)-5-((4-(5,6,7,8-tetrahydrobenzo[4,5]thieno[2,3-d]pyrimidin-4-yl)-3,6-dihydropyridin-1(2H)-yl)methyl)isoindoline-1,3-dione]",B (80%< substrate protein remaining %≤ 100%),B (80%< substrate protein remaining %≤ 100%),B (80%< substrate protein remaining %≤ 100%),A (0% ≤ substrate protein remaining % ≤ 80%),A (0% ≤ substrate protein remaining % ≤ 80%),A (0% ≤ substrate protein remaining % ≤ 80%),20 to 30,30 to 42,–,–,20 to 40,15 to 20,–
"O=C1CCN(N2Cc3cc(CN4CCN(c5nc(N6CCOCC6)nc6ccsc56)CC4)ccc3C2=O)C(=O)N1 [GT-08446, 1-(5-((4-(2-morpholinothieno[3,2-d]pyrimidin-4-yl)piperazin-1-yl)methyl)-1-oxoisoindolin-2-yl)dihydropyrimidine-2,4(1H,3H)-dione]",B (80%< substrate protein remaining %≤ 100%),B (80%< substrate protein remaining %≤ 100%),B (80%< substrate protein remaining %≤ 100%),A (0% ≤ substrate protein remaining % ≤ 80%),B (80%< substrate protein remaining %≤ 100%),A (0% ≤ substrate protein remaining % ≤ 80%),42 to 60,30 to 42,–,–,20 to 40,20 to 40,–
"Cc1nc(C2=CCN(Cc3ccc4c(c3)CN(N3CCC(=O)NC3=O)C4=O)CC2)c2ccsc2n1 [GT-08175, 1-(5-((4-(2-methylthieno[2,3-d]pyrimidin-4-yl)-3,6-dihydropyridin-1(2H)-yl)methyl)-1-oxoisoindolin-2-yl)dihydropyrimidine-2,4(1H,3H)-dione]",–,–,–,–,–,–,-10 to -5,80 to 100,18 to 25,80 to 100,–,–,–
"Cc1cc2c(C3=CCN(Cc4ccc5c(c4)CN(N4CCC(=O)NC4=O)C5=O)CC3)ncnc2s1 [GT-08157, 1-(5-((4-(6-methylthieno[2,3-d]pyrimidin-4-yl)-3,6-dihydropyridin-1(2H)-yl)methyl)-1-oxoisoindolin-2-yl)dihydropyrimidine-2,4(1H,3H)-dione]",–,–,–,–,–,–,-5 to 0,80 to 100,18 to 25,80 to 100,20 to 40,15 to 20,inhibition at 0.01 µM ([10]; read-out: Inhibition Rate at 10 nM (%)): 15 to 18%; inhibition at 0.5 µM ([10]; read-out: Inhibition Rate at 500 nM (%)): 25 to 40%
"O=C1CCN(N2Cc3cc(CN4CCC(c5ccsc5)CC4)ccc3C2=O)C(=O)N1 [GT-07371, 1-(1-oxo-5-((4-(thiophen-3-yl)piperidin-1-yl)methyl)isoindolin-2-yl)dihydropyrimidine-2,4(1H,3H)-dione]",B (80%< substrate protein remaining %≤ 100%),B (80%< substrate protein remaining %≤ 100%),B (80%< substrate protein remaining %≤ 100%),A (0% ≤ substrate protein remaining % ≤ 80%),B (80%< substrate protein remaining %≤ 100%),A (0% ≤ substrate protein remaining % ≤ 80%),–,–,–,–,–,–,IC50 [7]: 500 to 1000 nM
"O=C1CCN(N2Cc3cc(CN4CCC(c5c[nH]c6cc(F)ccc56)CC4)ccc3C2=O)C(=O)N1 [GT-05164, 1-(5-((4-(6-fluoro-1H-indol-3-yl)piperidin-1-yl)methyl)-1-oxoisoindolin-2-yl)dihydropyrimidine-2,4(1H,3H)-dione]",–,–,–,–,–,–,–,–,–,–,–,–,"WEE1 substrate protein remaining % [1, 11]: B (""B"" is defined as 80%< substrate protein remaining %≤ 100%); IKZF1 substrate protein remaining % [2, 11]: A (""A"" is defined as 0% ≤ substrate protein remaining % ≤ 80%); IKZF2 substrate protein remaining % [3, 11]: A (""A"" is defined as 0% ≤ substrate protein remaining % ≤ 80%); IKZF3 substrate protein remaining % [4, 11]: B (""B"" is defined as 80%< substrate protein remaining %≤ 100%); CK1α substrate protein remaining % [5, 11]: B (""B"" is defined as 80%< substrate protein remaining %≤ 100%); GSPT1 substrate protein remaining % [6, 11]: A (""A"" is defined as 0% ≤ substrate protein remaining % ≤ 80%); IC50 [7]: 100 to 300 nM"
